Measurements published in PubChem BioAssay AID651630 (Sanford-Burnham Center for Chemical Genomics, 2012).
The source made the active and inactive calls.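 The calls were made as follows: active = lipid-stain IC50 at or below a set limit, with nuclear-stain toxicity IC50 at least five times higher; inactive = the rest.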

Key:
DAPI = assay: TAG lipid buildup inhibition with viability readout – cell-based, panel, Nile Red and DAPI fluorescence, H9c2, dose response (AID 651630); details: H9c2 cells, DAPI nuclear fluorescence (cytotoxicity counter-readout), oleic acid;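 also: cells exposed to compound overnight before fixation and staining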
TAG = assay: as above; details: H9c2 cells, Nile Red TAG fluorescence, oleic acid

SMILES | IC50 cytotoxicity (DAPI nuclear signal decrease) (DAPI; run 1) | IC50 cytotoxicity (DAPI nuclear signal decrease) (DAPI; run 2) | IC50 (TAG; mean of runs) | IC50 (TAG; run 1) | IC50 (TAG; run 2) | IC50 cytotoxicity (DAPI nuclear signal decrease) (DAPI; mean of runs)
CNC(=S)NN=C(C)CCCC(C)=NNC(=S)NC | 11.3 µM | > 25 µM | > 25 µM (inactive) | > 25 µM | > 25 µM | 
CCOc1ccc(NC(=O)c2ccc(NC(=O)CSc3nc4ccccc4c(=O)[nH]3)cc2)cc1 | > 25 µM | > 25 µM |  | 24.6 µM | > 25 µM | > 25 µM (inactive)
COc1cc(C)c2sc3ccccc3c(=O)c2c1NCCN(C)C | > 25 µM | > 25 µM | 9.19 µM | 7.48 µM | 10.9 µM | > 25 µM (inactive)
Cc1ccc(Nc2nc(OC(C(F)(F)F)C(F)(F)F)nc(N3CCOCC3)n2)cc1 | 22.3 µM | > 25 µM | 7.62 µM | 7.92 µM | 7.32 µM | 
O=C(Nc1ccncc1)C1CCCN(S(=O)(=O)c2cccc3cccnc23)C1 (configuration not stated) | > 25 µM | > 25 µM | > 25 µM (inactive) | > 25 µM | > 25 µM | > 25 µM (inactive)
CN(C)CCCNC(=O)CC1C[C@H](C(=O)N2CCCCC2)[C@@]2(CCc3ccccc3)c3[nH]c4ccccc4c3CCN2C1=O (some centres not stated) | > 25 µM | > 25 µM | 20 µM (inactive) | 23.2 µM | 16.8 µM | > 25 µM (inactive)
COc1ccc(-c2cnc3c(NC=O)cc(-c4cccc(NS(C)(=O)=O)c4)cn23)cc1OC | 20.1 µM | 23 µM | 13.1 µM | 12.8 µM | 13.3 µM | 21.6 µM (inactive)
Cc1cccc2c(N=Nc3ccc(S(=O)(=O)Nc4ccc(Cl)cc4)cc3[N+](=O)[O-])c(O)[nH]c12 | > 25 µM | > 25 µM | 12.2 µM | 16.5 µM | 7.89 µM | > 25 µM (inactive)
CCCCCC(/C=N/Nc1ccc(S(=O)(=O)N2CCOCC2)cc1[N+](=O)[O-])=C\c1ccccc1 | > 25 µM | > 25 µM | 14.4 µM | 12.8 µM | 15.9 µM | > 25 µM (inactive)
COc1cc2c(cc1OC)C(C)N(C(=O)c1cc3c(C)cc(C)cc3[nH]1)CC2 (configuration not stated) | > 25 µM | > 25 µM | 9.16 µM | 9.59 µM | 8.73 µM | > 25 µM (inactive)
CCCCCCSc1cc(-c2nc3ccc(Cl)cn3c2NC2CCCCC2)ccc1OC | > 25 µM | > 25 µM | 22.6 µM (inactive) | 20.4 µM | 24.7 µM | > 25 µM (inactive)
COc1cc(-c2ccc3oc(-c4cccc(C)c4)c(C#CC4(O)CCCCC4)c3c2)cc(OC)c1OC | > 25 µM | > 25 µM | 15.9 µM (inactive) | 14.2 µM | 17.6 µM | > 25 µM (inactive)
CCCCOc1ccccc1C1CC(=O)NC2=C1C(=O)CCC2 (configuration not stated) | > 25 µM | > 25 µM | 15.9 µM (inactive) | 9.56 µM | 22.3 µM | > 25 µM (inactive)
CCOc1ccc2nc(NC(=O)CN3CCC(n4nnc5cc(F)ccc54)CC3)sc2c1 | > 25 µM | > 25 µM | 21.3 µM (inactive) | 17.9 µM | 24.6 µM | > 25 µM (inactive)
COc1cc(OC)nc(Nc2nc(C(N)Cc3ccc(Cl)cc3)cs2)n1 (configuration not stated) | > 25 µM | > 25 µM |  | > 25 µM | 23.4 µM | > 25 µM (inactive)
O=C(N/N=C/c1ccc2c(c1)OCO2)c1cc(-c2ccncc2)nc2ccccc12 | > 25 µM | > 25 µM | 14.7 µM | 16.8 µM | 12.6 µM | > 25 µM (inactive)
O=C1C=CC(O)C2(CO)OC12 (configuration not stated) | > 25 µM | > 25 µM |  | 14.4 µM | > 25 µM | > 25 µM (inactive)
O=C(c1ccoc1)N1CCN(c2cc(-c3ccncc3)nc3cc(-c4cccc(Cl)c4)nn23)CC1 | > 25 µM | > 25 µM |  | > 25 µM | 23.6 µM | > 25 µM (inactive)

SMILES | IC50 cytotoxicity (DAPI nuclear signal decrease) (DAPI; run 1) | IC50 cytotoxicity (DAPI nuclear signal decrease) (DAPI; run 2) | IC50 (TAG; mean of runs) | IC50 (TAG; run 1) | IC50 (TAG; run 2) | IC50 cytotoxicity (DAPI nuclear signal decrease) (DAPI; mean of runs)
Cc1cc(C(=O)COC(=O)c2ccc([N+](=O)[O-])o2)c(C)n1CC1CCCO1 (configuration not stated) | 16.4 µM | > 25 µM | 19.2 µM (inactive) | 18.9 µM | 19.4 µM | 
Cc1cccc(C(=O)N[C@H](C(=O)Nc2ncc(C)s2)C(C)C)c1 | 22.9 µM | > 25 µM | 9.36 µM | 9.74 µM | 8.97 µM | 
COc1ccc(NC(=O)C2(C)Cc3c(-c4cccc(NC(C)=O)c4)ccnc3O2)cn1 (configuration not stated) | > 25 µM | > 25 µM | > 25 µM (inactive) | > 25 µM | > 25 µM | > 25 µM (inactive)
COc1cccc(/C=C/C(=C2/C(=O)N(c3ccccc3)N=C2C)c2ccc(C)cc2)c1OC | > 25 µM | > 25 µM | 1.63 µM | 1.64 µM | 1.61 µM | 
CC(C)Cc1nc2sc3c(NCc4ccco4)ncnc3c2c2c1COC(C)(C)C2 | > 25 µM | > 25 µM | > 25 µM (inactive) | > 25 µM | > 25 µM | > 25 µM (inactive)
Nc1ccccc1C#Cc1ccccc1 | > 25 µM | > 25 µM | 10.9 µM | 8.79 µM | 13.1 µM | > 25 µM (inactive)
Cc1ccc2nc(NC(=O)CN(C)S(=O)(=O)c3cccc4nsnc34)sc2c1 | > 25 µM | > 25 µM | 10.5 µM | 11.1 µM | 9.95 µM | > 25 µM (inactive)
Cc1onc(-c2ccccc2)c1C(=O)Nc1cc(C(F)(F)F)ccc1N1CCOCC1 | > 25 µM | > 25 µM | 20.1 µM (inactive) | 15.4 µM | 24.8 µM | > 25 µM (inactive)
CSc1cc(-c2ccccc2)n(Cc2c(Cl)cccc2Cl)c(=O)c1C#N | > 25 µM | > 25 µM |  | 17.9 µM | > 25 µM | > 25 µM (inactive)
Cc1cc(N/N=C\c2ccc(Br)cc2)nc(-n2nc(C)cc2C)n1 | > 25 µM | > 25 µM | > 25 µM (inactive) | > 25 µM | > 25 µM | > 25 µM (inactive)
O=C1c2ccccc2C(=O)c2c1cccc2N1CCN(C/C=C/c2ccccc2)CC1 | > 25 µM | > 25 µM |  | 23.1 µM | > 25 µM | > 25 µM (inactive)
CC(C)(C)NC(=O)C[C@H]1C[C@H](C(=O)N2CCCCC2)[C@@]2(CCc3ccccc3)c3[nH]c4ccc(Cl)cc4c3CCN2C1=O | > 25 µM | > 25 µM | 17.7 µM (inactive) | 17.1 µM | 18.2 µM | > 25 µM (inactive)
CCOC(=O)[C@H]1[C@H]2COc3ccc(Cl)cc3[C@@H]2N2C(=O)c3cc(Cl)ccc3NC(=O)[C@@]12C | > 25 µM | > 25 µM | 9.03 µM | 11.6 µM | 6.41 µM | > 25 µM (inactive)
CC(C)CCNCC(O)CON=C1c2ccccc2-c2ccccc21 (configuration not stated) | > 25 µM | > 25 µM | > 25 µM (inactive) | > 25 µM | > 25 µM | > 25 µM (inactive)
Nc1ccc2ccccc2c1N=Nc1ccccc1 | > 25 µM | > 25 µM | 9.51 µM | 8.88 µM | 10.1 µM | > 25 µM (inactive)
COc1cc(NC(=O)Nc2nc(C(N)Cc3ccc(C(F)(F)F)cc3)cs2)cc(OC)c1OC (configuration not stated) | 24.9 µM | > 25 µM | 6.47 µM | 7.7 µM | 5.24 µM | 
CCOc1cc2c(cc1O)CCC1C2CCC2(C)C(O)CCC12 (configuration not stated) | > 25 µM | > 25 µM |  | 17.4 µM | > 25 µM | > 25 µM (inactive)
